Experimental data from patent US20030213746A1, “Neurosteroids as markers for alzheimer's disease” (priority 2003, published 2003).

What was measured:
hNT-PF cells = assay: Alternative pathway D synthesis; assay type: cell-based, human
Protocol: (§1) Alternative Pathway: To determine the amount of D synthesized by the alternative pathway cells were treated as previously described (15). In brief, cells were washed and oligodendrocytes and astrocytes were incubated with increasing concentrations of FeSO4 in serum free media, with and without SU 10603 (10 mM); neurons were incubated in serum free media containing 5 mM P plus FeSO4, with and without 10 mM SU 10603. After two hours, cells and media were homogenized and extracted as described above. Extracts were run on C18 TLC plates (Whatman, Clifton, N.J.) with a mobile phase of 95% methanol (v/v); radiolabeled standards for P, progesterone, and D were run on each plate, and appropriate steroid fractions were collected for each sample. TLC fractions were extracted with 2 ml diethyl ether (Fluka, New York) and evaporated. TLC extracts were assayed by specific radioimmunoassay (RIA). In separate experiments, steroids eluted from TLC were further identified by HPLC, RIA and Gas Chromatography-Mass Spectrometry (data not shown).
(§2) RIA using antibodies specific for each steroid (ICN Pharmaceuticals, Costa Mesa, Calif. Mesa) was used to measure P, progesterone and D levels. The data were analyzed using the IBM-PC RIA Data Reduction Program (version 4.1) from Jaffe and Associates (Silver Spring, Md.). Levels of β-amyloid species in AD and control brain samples were analyzed using 4G8 (Senetex PLC, Napa, Calif.), a monoclonal antibody to β-amyloid peptide that recognizes amino acids 17-24. Samples in 0.25 M sucrose buffer were run on 4-20% precast gradient gels (Novex, San Diego, Calif.). Samples were transferred to nitrocellulose membranes and incubated in primary antibody for 1 hour at room temperature at a dilution of 1:2000. Membranes were incubated in secondary antibody (1:1000) for 1-1.5 hours at room temperature and blots were visualized using ECL reagents (Amersham Pharmacia Biotech, Pisquataway, N.J.). Blots were exposed to X-OMAT film.

cell lines used = assay: P levels with SU 10603 alone; assay type: cell-based, human; details: any of the cell lines used, data not shown
human brain cells = assay: D formation with SU 10603; assay type: cell-based; details: all human brain cells examined
Protocol: as §1

KG-1-C and MGM-3 cells = assay: De novo steroid synthesis from 3H-mevalonactone; assay type: cell-based, human; details: 5 mM SU 10603, KG-1-C and MGM-3 cells, radiolabeled D
Protocol: De Novo Steroid Synthesis: All steroid synthesis experiments were performed with the cells at 60-80% confluency. In order to determine the ability of the cells to synthesize steroids de novo, cells were incubated for two hours at 37 C. and 6% CO2, with specific steroidogenic enzyme inhibitors as previously described (50). In brief, endogenous cholesterol synthesis was blocked by incubating cells with 20 mM Mevastatin in serum-free media (Sigma, St. Louis, Mo.) for 1 hour. 10 mM Trilostane and 5 mM SU 10603 were then added. After 30 minutes, […] ^3H-mevalonactone (33 Ci/mmol, DuPont NEN, Boston, Mass.) and 10 mM cold mevalonactone (Sigma, St. Louis, Mo.) were added. Thirty minutes later, media and cells were combined and homogenized on ice for 20 sec. Homogenates were extracted twice with 4 ml of ether:ethyl acetate (1:1, v/v, Fluka, New York, and EM Science, Gibbstown, N.J.) and evaporated. Extracts were reconstituted in 100% methanol and separated on a Beckman System Gold HPLC system, using a 126NM Solvent Module, 166NM Detector and a Beckman ultrasphere XL 3-mm Spherical 80 A pore column (Beckman, Fullerton, Calif.), eluted on a methanol gradient. Fractions were collected each minute and counted by liquid scintillation spectrometry (EG&G Wallac, Gaithersburg, Md.) to determine production of radiolabeled steroids. […]

MGM-1 cells [1] = assay: ROS measurement by 2,7-DCF fluorescence; assay type: cell-based, human
Protocol: β-Amyloid Regulation of the Alternative Pathway: MGM-1 cells were plated on 96 well (˜5,000 cells/well, for ROS measurements) or 24 well (˜15,000 cells/well, for D measurements) plates (Corning Costar, Acton, Mass.). At the same time, 1 mg Ab (Ab(1-42), AnaSpec Inc., San Jose, Calif.) was dissolved in 0.5 ml serum-free media and incubated at 4 C. for aggregation. 24 hours later, cells were incubated in DMEM with 10% fetal bovine serum and […] and 10 mM Vitamin E (Sigma, St. Louis, Mo.). Control samples were incubated in DMEM with 10% FBS. Cells were incubated at 37 C. and 6% CO2 for at least 12 hours and processed for ROS generation (see below) or D synthesis as described above for the alternative experiments.
(§3) Treatment media was removed and the cells were washed with PBS. The fluorescent probe 2,7-dichlorofluorescin diacetate (2,7-DCF, Molecular Probes, Inc., Eugene, Oreg.) was used to measure levels of oxidative stress (48). Cells were incubated with […] 2,7-DCF, fluorescence was measured at 485 nm/535 nm using the Victor^2 Multilabel Counter (EG&G Wallac, Gaithersburg, Md.) and values of cellular fluorescence were obtained.

MGM-1 cells [2] = assay: β-Amyloid regulation of the alternative pathway, D levels; assay type: cell-based, human
Protocol: as §1, with “In separate experiments, steroids eluted from TLC were further identified by HPLC, RIA and Gas Chromatography-Mass Spectrometry (data not shown).” left out
RIA using antibodies specific for each steroid (ICN Pharmaceuticals, Costa Mesa, Calif. Mesa) was used to measure P, progesterone and D levels. The data were analyzed using the IBM-PC RIA Data Reduction Program (version 4.1) from Jaffe and Associates (Silver Spring, Md.). Levels of β-amyloid species in AD and control brain samples were analyzed using 4G8 (Senetex PLC, Napa, Calif.), a monoclonal antibody to β-amyloid peptide that recognizes amino acids 17-24. […]

[3] = tested on: oligodendrocytes or astrocytes; assay: D production after addition of P; assay type: cell-based, human; details: addition of 5 μM P, data not shown
Human glioma cells = assay: Vitamin E treatment, ROS and D levels; assay type: cell-based; details: 10 mM Vitamin E, at least twelve hours, data not shown
Protocol: as §1, with “In separate experiments, steroids eluted from TLC were further identified by HPLC, RIA and Gas Chromatography-Mass Spectrometry (data not shown).” left out
Treatment media was removed and the cells were washed with PBS. […] Cells were incubated with […] 2,7-DCF, fluorescence was measured at 485 nm/535 nm using the Victor^2 Multilabel Counter (EG&G Wallac, Gaithersburg, Md.) and values of cellular fluorescence were obtained.
We hypothesized that high endogenous levels of ROS might be responsible for the de novo D formation in KG-1-C and MGM-3 cells. […] We measured ROS and D levels in these cells as described in the Experimental Procedures. […]

NHA cells [4] = assay: ROS measurement by 2,7-DCF fluorescence; assay type: cell-based, human; details: all concentrations of FeSO4 tested
Protocol: as §3

MGM-1 cells [5] = assay: Alternative pathway D synthesis; assay type: cell-based, human; details: increasing concentrations of FeSO4, two hours
Protocol: as §1, §2

KG-1-C cells = assay: Alternative pathway D synthesis; assay type: cell-based, human; details: increasing concentrations of FeSO4, two hours
Protocol: as §1, §2

NHA cells [6] = assay: Alternative pathway D synthesis; assay type: cell-based, human; details: FeSO4, two hours, only seen at the highest dose
Protocol: as §1, §2

MGM-3 cells = assay: Alternative pathway D synthesis; assay type: cell-based, human; details: increasing concentrations of FeSO4, two hours
Protocol: as §1, §2

[7] = tested on: serum from AD and control patients; assay: FeSO4 treatment of serum, DHEA by RIA; set-up: species or system human
Protocol: (§4) Tissue Samples: For brain samples from Alzheimer's patients and control patients, samples were treated as previously described (17). In brief, aliquots of homogenates were incubated with a final concentration of 30 mM (brain) or 10 mM (serum and CSF) FeSO4 at 37° C. for 2 hours. After 2 hours, samples were extracted and purified as described for the endogenous levels, and assayed by specific radioimmunoassay.
Serum and CSF Levels of DHEA: Serum was obtained from 11 patients, 5 with AD and 6 age-matched controls. Serum samples were split and treated with and without 10 mM FeSO4. Serum and CSF samples were extracted as described for the brain tissue samples, and purified by HPLC. DHEA levels were measured by specific radioimmunoassay.

[8] = tested on: brain samples from AD and Control Patients; assay: FeSO4 treatment of brain homogenates, P and D by RIA after HPLC; set-up: species or system human
Protocol: as §4, §2

[9] = 30 mM FeSO4, frontal cortex, AD patients
[10] = 30 mM FeSO4, frontal cortex, control patients (C)
[11] = 30 mM FeSO4, hippocampus, AD patients
[12] = 30 mM FeSO4, hippocampus, control patients (C)
[13] = 30 mM FeSO4, hypothalamus, AD patients
[14] = 30 mM FeSO4, hypothalamus, control patients (C)

Molecule: O=C1c2cc(Cl)ccc2CCC1c1cccnc1 (centres unmarked) [SU 10603]
- effect on D levels (hNT-PF cells; SU 10603 treatment): not affected
- effect on P levels (cell lines used): no effect
- inhibition of D formation (human brain cells): did not inhibit
- blocking endogenous D production (KG-1-C and MGM-3 cells): not effective

Molecule: Aβ: β-amyloid peptide Ab(1-42), AnaSpec Inc., aggregated; a component of Alzheimer's disease plaques
- 2,7-DCF fluorescence (ROS) versus control levels (MGM-1 cells [1]; 50 mM Aβ, MGM-1, p<0.01): significant increase
- D levels versus control (MGM-1 cells [2]; 50 mM Aβ, MGM-1, p<0.01): increased D levels significantly over control

Molecule: CC(=O)[C@H]1CC[C@H]2[C@@H]3CC=C4C[C@@H](O)CC[C@]4(C)[C@H]3CC[C@]12C [P, pregnenolone]
- D production [3]: did not result in increased D production

Molecule: Vitamin E
- effect on Aβ-induced increase in ROS (MGM-1 cells [1]; 10 mM Vitamin E with 50 mM Aβ, MGM-1, p=0.054): partially blocked
- effect on Aβ-induced increase in D levels (MGM-1 cells [2]; 10 mM Vitamin E with 50 mM Aβ, MGM-1, p<0.05 versus Ab): blocked
- D levels compared to untreated cells (Human glioma cells): lowered
- ROS levels compared to untreated cells (Human glioma cells): lowered

Molecule: O=S(=O)([O-])[O-].[Fe+2] [FeSO4]
- ROS levels above untreated cells (NHA cells [4]): significant increase
- D synthesis via the alternative pathway (MGM-1 cells [5]): has the ability to make D via the alternative pathway
- effect on D levels (KG-1-C cells): did not significantly affect
- effect on D levels (hNT-PF cells; increasing concentrations of FeSO4 plus 5 mM P): not affected
- effect on D formation (NHA cells [6]): significant effect
- effect on D levels (MGM-3 cells): did not significantly affect
- effect on D levels ([7]; 10 mM FeSO4, AD serum): little effect
- increase in D levels ([7]; 10 mM FeSO4, control serum): 1.5-3 fold
- ROS levels above untreated cells (MGM-1 cells [1]; all concentrations of FeSO4 tested, MGM-1): significant increase
- D (pg/mg protein) [8, 9]: 219.3 pg/mg protein
- P (pg/mg protein) [8, 9]: 10485.5 pg/mg protein
- D (pg/mg protein) [8, 10]: 70.0 pg/mg protein
- P (pg/mg protein) [8, 10]: 7339.8 pg/mg protein
- D (pg/mg protein) [8, 11]: 241.7 pg/mg protein
- P (pg/mg protein) [8, 11]: 11584.0 pg/mg protein
- D (pg/mg protein) [8, 12]: 128.3 pg/mg protein
- P (pg/mg protein) [8, 12]: 8529.3 pg/mg protein
- D (pg/mg protein) [8, 13]: 180.8 pg/mg protein
- P (pg/mg protein) [8, 13]: 6640.3 pg/mg protein
- D (pg/mg protein) [8, 14]: 61.4 pg/mg protein
- P (pg/mg protein) [8, 14]: 7707.2 pg/mg protein
